This assay deals with MX-1 breast xenograft, intrarenal, nude mice, tumor weight. Kind of assay: NCI In Vivo Anticancer Drug Screen. Data for tumor model Human Mammary Carcinoma MX-1 Xenograft (intrarenal inoculation) in NU/NU BALB/C (nude) mice. As to conditions: endpoint: mean tumor weight change, higher = larger tumour. The procedure, abridged:
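Antitumor activity is expressed as a T/C ratio. The treated group's tumor size or survival is compared against the vehicle-treated control group in mice bearing transplanted tumors.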

The mark [1] stands for this setting: dose: 300.0 mg/kg/injection, schedule: Q04DX003 (sc), vehicle: saline with Tween-80.
[2] abbreviates: dose: 1200.0 mg/kg/injection, schedule: Q04DX003 (sc), vehicle: saline with Tween-80.

Structures are written as SMILES. “And” between values parts separate entries of the source, which are not always exact repeats. Equal values may be shown once. Records with an inconclusive call do not appear.

The results in this text go back to PubChem BioAssay AID298 (DTP/NCI, 2004).

As to `CC[C@]1(O)C[C@H]2CN(CCc3c([nH]c4ccccc34)[C@@](C(=O)OC)(c3cc4c(cc3OC)N(C)[C@H]3[C@@](O)(C(=O)OC)[C@H](OC(C)=O)[C@]5(CC)C=CCN6CC[C@]43[C@@H]65)C2)C1`, the T/C is 43 % of control (dose: 0.25 mg/kg/injection, schedule: Q01DX010 (sc), vehicle: saline) and 18 % of control (dose: 0.5 mg/kg/injection, schedule: Q01DX010 (sc), vehicle: saline).
As for `COc1cc2c(c(OC)c1OC)-c1ccc(OC)c(=O)cc1[C@@H](NC(=O)CCl)CC2`, the T/C is, setting by setting: (dose: 0.5 mg/kg/injection, schedule: Q04DX003 (sc), vehicle: saline with Tween-80) 87 % of control; (dose: 1.0 mg/kg/injection, schedule: Q04DX003 (sc), vehicle: saline with Tween-80) 43 % of control; (dose: 2.0 mg/kg/injection, schedule: Q04DX003 (sc), vehicle: saline with Tween-80) 8 % of control; (dose: 4.0 mg/kg/injection, schedule: Q04DX003 (sc), vehicle: saline with Tween-80) 1 % of control.
As for `N#CC(C#N)=C/C=C/c1cccc([N+](=O)[O-])c1`, the T/C is, setting by setting: (dose: 200.0 mg/kg/injection, schedule: Q01DX010 (sc), vehicle: Klucel (hydroxypropylcellulose) (HPC)) 176 % of control; (dose: 400.0 mg/kg/injection, schedule: Q01DX010 (sc), vehicle: Klucel (hydroxypropylcellulose) (HPC)) 214 % of control.
For the molecule `CC1OC(O[C@H]2/C=C/C=C/C=C/C=C/C=C/C=C/C=C/[C@H](C)[C@@H](O)[C@@H](C)[C@H](C)OC(=O)C[C@H](O)C[C@H](O)CC[C@@H](O)[C@H](O)C[C@H](O)C[C@]3(O)C[C@H](O)[C@@H](C(=O)O)[C@H](C2)O3)C(O)C(N)C1O` (some centres undefined), the T/C was 61 % of control (dose: 12.5 mg/kg/injection, schedule: Q04DX003 (ip), vehicle: suspension in saline); 57 % of control (dose: 25.0 mg/kg/injection, schedule: Q04DX003 (ip), vehicle: suspension in saline); 77 % of control (dose: 50.0 mg/kg/injection, schedule: Q04DX003 (ip), vehicle: suspension in saline); 84 % of control and 89 % of control (dose: 100.0 mg/kg/injection, schedule: Q04DX003 (ip), vehicle: suspension in saline); 73 % of control (dose: 200.0 mg/kg/injection, schedule: Q04DX003 (ip), vehicle: suspension in saline); 79 % of control (dose: 400.0 mg/kg/injection, schedule: Q04DX003 (ip), vehicle: suspension in saline).
For `COc1cc2c(cc1OC)-c1c3c(cc4c1[C@@H](C2)N(C)CC4)OCO3`, the T/C is, setting by setting: (dose: 37.5 mg/kg/injection, schedule: Q04DX003 (ip), vehicle: distilled water + alcohol) 56 % of control; (dose: 75.0 mg/kg/injection, schedule: Q04DX003 (ip), vehicle: distilled water + alcohol) 55 % of control; (dose: 150.0 mg/kg/injection, schedule: Q04DX003 (ip), vehicle: distilled water + alcohol) 68 % of control.
As to `CS(=O)(=O)CS(=O)(=O)OCCCl`, the T/C is, setting by setting: (dose: 21.6 mg/kg/injection, schedule: Q04DX003 (ip), vehicle: other) 61 % of control; (dose: 36.0 mg/kg/injection, schedule: Q04DX003 (ip), vehicle: other) 28 % of control; (dose: 37.5 mg/kg/injection, schedule: Q04DX003 (sc), vehicle: suspension in saline) 106 % of control; (dose: 60.0 mg/kg/injection, schedule: Q04DX003 (ip), vehicle: other) 25 % of control; (dose: 75.0 mg/kg/injection, schedule: Q04DX003 (sc), vehicle: suspension in saline) 106 % of control; (dose: 99.6 mg/kg/injection, schedule: Q04DX003 (ip), vehicle: dextrose) 100 % of control. Also, the T/C is 19 % of control (dose: 99.6 mg/kg/injection, schedule: Q04DX003 (ip), vehicle: other); 43 % of control (dose: 100.0 mg/kg/injection, schedule: Q04DX003 (ip), vehicle: other); 54 % of control (dose: 150.0 mg/kg/injection, schedule: Q04DX003 (sc), vehicle: suspension in saline); 37 % of control (dose: 166.0 mg/kg/injection, schedule: Q04DX003 (ip), vehicle: dextrose); 13 % of control (dose: 166.0 mg/kg/injection, schedule: Q04DX003 (ip), vehicle: other); 20 % of control (dose: 166.7 mg/kg/injection, schedule: Q04DX003 (ip), vehicle: other). For the same molecule, the T/C reads like this: (dose: 276.67 mg/kg/injection, schedule: Q04DX003 (ip), vehicle: dextrose) 19 % of control; (dose: 276.67 mg/kg/injection, schedule: Q04DX003 (ip), vehicle: other) 10 % of control.
On to `S=C1CCCCN1`, for which the T/C by setting is: (dose: 150.0 mg/kg/injection, schedule: Q04DX003 (ip), vehicle: distilled water + Tween-80 + alcohol) 82 % of control; (dose: 300.0 mg/kg/injection, schedule: Q04DX003 (ip), vehicle: distilled water + Tween-80 + alcohol) 72 % of control.
On to `CCCCOCN(COCCCC)C12CC3CC(CC(C3)C1)C2`, for which the T/C was 48 % of control (dose: 100.0 mg/kg/injection, schedule: Q04DX003 (sc), vehicle: saline with Tween-80); 45 % of control (dose: 200.0 mg/kg/injection, schedule: Q04DX003 (sc), vehicle: saline with Tween-80); 76 % of control (dose: 400.0 mg/kg/injection, schedule: Q04DX003 (sc), vehicle: saline with Tween-80).
For the molecule `CC1=CC(=Nc2ccc(N(CCCl)CCCl)cc2)C=C(C)C1=O`, the T/C (dose: 300.0 mg/kg/injection, schedule: Q04DX003 (sc), vehicle: Klucel (hydroxypropylcellulose) (HPC)) was -11 % of control; the T/C (dose: 600.0 mg/kg/injection, schedule: Q04DX003 (sc), vehicle: Klucel (hydroxypropylcellulose) (HPC)) is -12 % of control; the T/C (dose: 1200.0 mg/kg/injection, schedule: Q04DX003 (sc), vehicle: Klucel (hydroxypropylcellulose) (HPC)) is 1 % of control; the T/C (dose: 2400.0 mg/kg/injection, schedule: Q04DX003 (sc), vehicle: Klucel (hydroxypropylcellulose) (HPC)) is -20 % of control.
As for `COc1cccc2c1C(=N)c1c(O)c3c(c(O)c1C2=O)C[C@@](O)(C(C)=O)C[C@@H]3OC1CC(N)C(O)C(C)O1` (some centres undefined), the T/C (dose: 4.0 mg/kg/injection, schedule: Q01DX010 (sc), vehicle: water) is 51 % of control; the T/C (dose: 8.0 mg/kg/injection, schedule: Q01DX010 (sc), vehicle: water) is 56 % of control; the T/C (dose: 16.0 mg/kg/injection, schedule: Q01DX010 (sc), vehicle: water) is 56 % of control.
Regarding `CCC1(O)C(=O)OCc2c1cc1n(c2=O)Cc2cc3cc(N)ccc3nc2-1` (centres undefined), the T/C (dose: 1.88 mg/kg/injection, schedule: Q04DX003 (ip), vehicle: suspension in saline) is 5 % of control; the T/C (dose: 3.75 mg/kg/injection, schedule: Q04DX003 (ip), vehicle: suspension in saline) was 1 % of control; the T/C (dose: 7.5 mg/kg/injection, schedule: Q04DX003 (ip), vehicle: suspension in saline) was -100 % of control; the T/C (dose: 15.0 mg/kg/injection, schedule: Q04DX003 (ip), vehicle: suspension in saline) was -100 % of control.
Turning to `C=COC(=O)C(Cc1ccccc1)NC(=O)OCc1ccccc1` (centres undefined), the T/C by setting is: under setting [1], 63 % of control; (dose: 600.0 mg/kg/injection, schedule: Q04DX003 (sc), vehicle: saline with Tween-80) 85 % of control; under setting [2], 112 % of control.
As to `CC(=O)Nc1cscc1NC(C)=O`, the T/C was 198 % of control (dose: 150.0 mg/kg/injection, schedule: Q04DX003 (sc), vehicle: saline with Tween-80); 59 % of control under setting [1]; 106 % of control under setting [2].
Take `C=CCCC(=O)CCCC(=O)O[C@@H]1[C@@H]2[C@H](CC1(C)C)[C@H](O)[C@@]13O[C@@H]1[C@H](O)[C@@]1(CO1)[C@@]23C`: the T/C was 79 % of control (dose: 0.4 mg/kg/injection, schedule: Q04DX003 (ip), vehicle: Klucel (hydroxypropylcellulose) (HPC)); 82 % of control (dose: 0.8 mg/kg/injection, schedule: Q04DX003 (ip), vehicle: Klucel (hydroxypropylcellulose) (HPC)); 92 % of control (dose: 1.6 mg/kg/injection, schedule: Q04DX003 (ip), vehicle: Klucel (hydroxypropylcellulose) (HPC)); 81 % of control (dose: 3.2 mg/kg/injection, schedule: Q04DX003 (ip), vehicle: Klucel (hydroxypropylcellulose) (HPC)); 120 % of control (dose: 100.0 micrograms/kg/injection, schedule: Q04DX003 (ip), vehicle: Klucel (hydroxypropylcellulose) (HPC)); 97 % of control (dose: 200.0 micrograms/kg/injection, schedule: Q04DX003 (ip), vehicle: Klucel (hydroxypropylcellulose) (HPC)). The T/C is, setting by setting: (dose: 400.0 micrograms/kg/injection, schedule: Q04DX003 (ip), vehicle: Klucel (hydroxypropylcellulose) (HPC)) 89 % of control; (dose: 800.0 micrograms/kg/injection, schedule: Q04DX003 (ip), vehicle: Klucel (hydroxypropylcellulose) (HPC)) 121 % of control.
For the molecule `CO[C@@H]1C2=CC=CC=C[C@H]2n2c(=O)n(C)c(=O)n21`, the T/C (dose: 75.0 mg/kg/injection, schedule: Q04DX003 (ip), vehicle: other) was 36 % of control; the T/C (dose: 150.0 mg/kg/injection, schedule: Q04DX003 (ip), vehicle: other) was 34 % of control; the T/C (dose: 300.0 mg/kg/injection, schedule: Q04DX003 (ip), vehicle: other) is 92 % of control.
